{"source": "the OligoGym collection", "biological_target": "SOD1", "details": "ASO", "note": "Values joined by “and” are separate entries in the source; they are usually repeats but may differ in a detail not shown here. Identical values can stand only once. After the bases stand the sugars from the 5' end (letter, count) and the backbone: PS all phosphorothioate, else s phosphorothioate and o phosphodiester by linkage. Methylation of C is not given here. e = 2'-O-(2-methoxyethyl) (MOE); k = constrained ethyl (cEt); d = 2'-deoxy (DNA)", "data": [{"sequence": "CAGGATACATTTCTACAGCT (sugars e5 d10 e5, linkages s1 o3 s11 o2 s2)", "values": [{"measurement": "target mRNA inhibition", "setting": "A431, 0.062 µM", "value": 33, "unit": "%"}, {"measurement": "target mRNA inhibition", "setting": "A431, 0.185 µM", "value": 29, "unit": "%"}, {"measurement": "target mRNA inhibition", "setting": "A431, 0.556 µM", "value": 52, "unit": "%"}, {"measurement": "target mRNA inhibition", "setting": "A431, 0.6 µM", "value": 50, "unit": "%"}, {"measurement": "target mRNA inhibition", "setting": "A431, 1.667 µM", "value": 62, "unit": "%"}, {"measurement": "target mRNA inhibition", "setting": "A431, 5 µM", "value": 74, "unit": "%"}, {"measurement": "target mRNA inhibition", "setting": "A431, 15 µM", "value": 82, "unit": "%"}, {"measurement": "target mRNA inhibition", "setting": "SH-SY5Y, 0.062 µM", "value": 10, "unit": "%"}, {"measurement": "target mRNA inhibition", "setting": "SH-SY5Y, 0.185 µM", "value": 10, "unit": "%"}, {"measurement": "target mRNA inhibition", "setting": "SH-SY5Y, 0.556 µM", "value": 33, "unit": "%"}, {"measurement": "target mRNA inhibition", "setting": "SH-SY5Y, 1.667 µM", "value": 61, "unit": "%"}, {"measurement": "target mRNA inhibition", "setting": "SH-SY5Y, 5 µM", "value": 81, "unit": "%"}, {"measurement": "target mRNA inhibition", "setting": "SH-SY5Y, 15 µM", "value": 92, "unit": "%"}]}, {"sequence": "CAGTCCTTTAATGCTTCCCC (sugars e5 d10 e5, PS)", "values": [{"measurement": "target mRNA inhibition", "setting": "HepG2, 5 µM", "value": "51% and 40%"}]}, {"sequence": "CAGTGTGCGGCCAATGATGC (sugars e5 d10 e5, PS)", "values": [{"measurement": "target mRNA inhibition", "setting": "HepG2, 5 µM", "value": 0, "unit": "%"}]}, {"sequence": "CAGTGTTTAATGTTTA (sugars kekeddddddddekek, linkages s1 o3 s8 o1 s2)", "values": [{"measurement": "target mRNA inhibition", "setting": "A431, 0.12 µM", "value": 19, "unit": "%"}, {"measurement": "target mRNA inhibition", "setting": "A431, 0.6 µM", "value": 18, "unit": "%"}, {"measurement": "target mRNA inhibition", "setting": "A431, 3 µM", "value": 36, "unit": "%"}, {"measurement": "target mRNA inhibition", "setting": "A431, 15 µM", "value": 55, "unit": "%"}, {"measurement": "target mRNA inhibition", "setting": "HepG2, 0.222 µM", "value": 50, "unit": "%"}, {"measurement": "target mRNA inhibition", "setting": "HepG2, 0.667 µM", "value": 67, "unit": "%"}, {"measurement": "target mRNA inhibition", "setting": "HepG2, 2 µM", "value": 81, "unit": "%"}, {"measurement": "target mRNA inhibition", "setting": "HepG2, 6 µM", "value": 86, "unit": "%"}]}, {"sequence": "CATAATAAGTGCCATAC (sugars e2 k2 d9 k2 e2, PS)", "values": [{"measurement": "target mRNA inhibition", "setting": "HepG2, 5 µM", "value": 34, "unit": "%"}]}, {"sequence": "CATCGGCCACACCATCTTTG (sugars e5 d10 e5, PS)", "values": [{"measurement": "target mRNA inhibition", "setting": "HepG2, 5 µM", "value": "34% and 38%"}]}, {"sequence": "CATCTGTGATTTAAGTC (sugars e2 k2 d9 k2 e2, PS)", "values": [{"measurement": "target mRNA inhibition", "setting": "HepG2, 5 µM", "value": 48, "unit": "%"}]}, {"sequence": "CATCTGTGATTTAAGTCTGG (sugars e5 d10 e5, PS)", "values": [{"measurement": "target mRNA inhibition", "setting": "HepG2, 5 µM", "value": 29, "unit": "%"}]}, {"sequence": "CATGGAATCCATGCAGG (sugars e3 k2 d7 k2 e3, PS)", "values": [{"measurement": "target mRNA inhibition", "setting": "HepG2, 3 µM", "value": 14, "unit": "%"}]}, {"sequence": "CATGGACCACCAGTGTGCGG (sugars e5 d10 e5, PS)", "values": [{"measurement": "target mRNA inhibition", "setting": "HepG2, 5 µM", "value": 25, "unit": "%"}]}, {"sequence": "CATTTCCACCTTTGCCC (sugars e3 k2 d7 k2 e3, PS)", "values": [{"measurement": "target mRNA inhibition", "setting": "HepG2, 3 µM", "value": 73, "unit": "%"}]}, {"sequence": "CATTTCTACAGCTAGCA (sugars e3 k2 d7 k2 e3, PS)", "values": [{"measurement": "target mRNA inhibition", "setting": "HepG2, 3 µM", "value": 34, "unit": "%"}]}, {"sequence": "CCAAGTGATCATAAATC (sugars e2 k2 d9 k2 e2, PS)", "values": [{"measurement": "target mRNA inhibition", "setting": "HepG2, 5 µM", "value": 48, "unit": "%"}]}, {"sequence": "CCATACAGGGTTTTTAT (sugars e2 k2 d8 k2 e3, PS)", "values": [{"measurement": "target mRNA inhibition", "setting": "HepG2, 5 µM", "value": 13, "unit": "%"}]}, {"sequence": "CCCAAGTCATCTGCTTT (sugars e3 k2 d7 k2 e3, PS)", "values": [{"measurement": "target mRNA inhibition", "setting": "HepG2, 3 µM", "value": 72, "unit": "%"}]}, {"sequence": "CCCATCTGTGATTTAAG (sugars e2 k2 d8 k2 e3, PS)", "values": [{"measurement": "target mRNA inhibition", "setting": "HepG2, 5 µM", "value": 49, "unit": "%"}]}, {"sequence": "CCCCACACCTTCACTGG (sugars e3 k2 d7 k2 e3, PS)", "values": [{"measurement": "target mRNA inhibition", "setting": "HepG2, 3 µM", "value": 14, "unit": "%"}]}, {"sequence": "CCGAGGACTGCAACGGAAAC (sugars e5 d10 e5, PS)", "values": [{"measurement": "target mRNA inhibition", "setting": "HepG2, 4 µM", "value": 29, "unit": "%"}]}, {"sequence": "CCGCGACTACTTTATAG (sugars e3 k2 d7 k2 e3, PS)", "values": [{"measurement": "target mRNA inhibition", "setting": "HepG2, 3 µM", "value": 5, "unit": "%"}]}, {"sequence": "CCGTCGCCCTTCAGCACGCA (sugars e5 d10 e5, PS)", "values": [{"measurement": "target mRNA inhibition", "setting": "A431, 0.12 µM", "value": "0% and 5%"}, {"measurement": "target mRNA inhibition", "setting": "A431, 0.6 µM", "value": "7% and 0%"}, {"measurement": "target mRNA inhibition", "setting": "A431, 3 µM", "value": "17% and 0% and 7%"}, {"measurement": "target mRNA inhibition", "setting": "HepG2, 0.1875 µM", "value": "0% and 3%"}, {"measurement": "target mRNA inhibition", "setting": "HepG2, 0.222 µM", "value": "0% and 14%"}]}, {"sequence": "CCTCATAATAAGTGCCA (sugars e2 k2 d8 k2 e3, PS)", "values": [{"measurement": "target mRNA inhibition", "setting": "HepG2, 5 µM", "value": 29, "unit": "%"}]}, {"sequence": "CCTCATAATAAGTGCCATAC (sugars e5 d10 e5, PS)", "values": [{"measurement": "target mRNA inhibition", "setting": "HepG2, 5 µM", "value": 23, "unit": "%"}]}, {"sequence": "CCTTCTGCTCGAAATTGATG (sugars e5 d10 e5, PS)", "values": [{"measurement": "target mRNA inhibition", "setting": "HepG2, 3 µM", "value": 53, "unit": "%"}]}, {"sequence": "CCTTTAATGCTTCCCCACAC (sugars e5 d10 e5, PS)", "values": [{"measurement": "target mRNA inhibition", "setting": "HepG2, 4 µM", "value": 1, "unit": "%"}]}, {"sequence": "CGACTACTTTATAGGCC (sugars e3 k2 d7 k2 e3, PS)", "values": [{"measurement": "target mRNA inhibition", "setting": "HepG2, 3 µM", "value": 12, "unit": "%"}]}, {"sequence": "CGATCCCAATTACACCA (sugars e2 k2 d8 k2 e3, PS)", "values": [{"measurement": "target mRNA inhibition", "setting": "HepG2, 4 µM", "value": 57, "unit": "%"}]}, {"sequence": "CGATCCCAATTACACCA (sugars e3 k2 d7 k2 e3, PS)", "values": [{"measurement": "target mRNA inhibition", "setting": "HepG2, 3 µM", "value": 12, "unit": "%"}]}, {"sequence": "CGCCCTTCAGCACGCACACG (sugars e5 d10 e5, PS)", "values": [{"measurement": "target mRNA inhibition", "setting": "HepG2, 0.1875 µM", "value": 0, "unit": "%"}, {"measurement": "target mRNA inhibition", "setting": "HepG2, 0.75 µM", "value": 2, "unit": "%"}, {"measurement": "target mRNA inhibition", "setting": "HepG2, 3 µM", "value": 28, "unit": "%"}, {"measurement": "target mRNA inhibition", "setting": "HepG2, 4 µM", "value": 23, "unit": "%"}, {"measurement": "target mRNA inhibition", "setting": "HepG2, 12 µM", "value": 92, "unit": "%"}]}, {"sequence": "CGTCGCCCTTCAGCACG (sugars e2 k2 d8 k2 e3, PS)", "values": [{"measurement": "target mRNA inhibition", "setting": "HepG2, 4 µM", "value": 52, "unit": "%"}]}, {"sequence": "CTACAGGTACTTTAAAG (sugars e2 k2 d8 k2 e3, PS)", "values": [{"measurement": "target mRNA inhibition", "setting": "HepG2, 5 µM", "value": 2, "unit": "%"}]}, {"sequence": "CTCACTACAGGTACTTT (sugars e2 k2 d8 k2 e3, PS)", "values": [{"measurement": "target mRNA inhibition", "setting": "HepG2, 5 µM", "value": 40, "unit": "%"}]}, {"sequence": "CTCACTACAGGTACTTTAAA (sugars e5 d10 e5, PS)", "values": [{"measurement": "target mRNA inhibition", "setting": "HepG2, 5 µM", "value": 25, "unit": "%"}]}, {"sequence": "CTCATAATAAGTGCCAT (sugars e2 k2 d8 k2 e3, PS)", "values": [{"measurement": "target mRNA inhibition", "setting": "HepG2, 5 µM", "value": 30, "unit": "%"}]}, {"sequence": "CTCCGCGACTACTTTATAGG (sugars e5 d10 e5, PS)", "values": [{"measurement": "target mRNA inhibition", "setting": "HepG2, 4 µM", "value": 27, "unit": "%"}]}, {"sequence": "CTCCGCGCCTCGCCCACTCT (sugars e5 d10 e5, PS)", "values": [{"measurement": "target mRNA inhibition", "setting": "HepG2, 4 µM", "value": 40, "unit": "%"}]}, {"sequence": "CTCTCTTCATCCTTTGG (sugars e3 k2 d7 k2 e3, PS)", "values": [{"measurement": "target mRNA inhibition", "setting": "HepG2, 3 µM", "value": 2, "unit": "%"}]}, {"sequence": "CTGGCAAAATACAGGTC (sugars e2 k2 d8 k2 e3, PS)", "values": [{"measurement": "target mRNA inhibition", "setting": "HepG2, 5 µM", "value": 25, "unit": "%"}]}, {"sequence": "CTGTATTATCTCCAAACTCA (sugars e5 d10 e5, PS)", "values": [{"measurement": "target mRNA inhibition", "setting": "HepG2, 5 µM", "value": "32% and 28%"}]}, {"sequence": "CTTCAATAGACACATCGGCC (sugars e5 d10 e5, PS)", "values": [{"measurement": "target mRNA inhibition", "setting": "HepG2, 5 µM", "value": "39% and 16%"}]}]}
